According to the supplement of paper PMC10307832:

Experiments:
Experiment in all cases: relative viability (nuclei count vs DMSO), 5 days (fraction); higher = more cells survive
GSK-J4 + OSI-027 = compound: CCOC(=O)CCNc1cc(N2CCc3ccccc3CC2)nc(-c2ccccn2)n1 [GSK-J4] + COc1cccc2cc(-c3nc([C@H]4CC[C@H](C(=O)O)CC4)n4ncnc(N)c34)[nH]c12 [OSI-027] (partner 0.5 µM)
Summary of the method: (§1)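 Lung cancer cell lines were seeded in 1536-well plates and dosed by pin tool the next day, with either a single drug or a fixed anchor-drug dose combined with five library-drug doses (not always all listed) spaced in √10 steps. Five days later, one step fixed the cells and stained their nuclei (final 0.05% Triton X-100, 1% formaldehyde, 1 ug/ml Hoechst), and nuclei were counted on 4× images. Relative viability is the nuclei count in treated wells divided by the count in vehicle wells, and each value is the median of duplicate plates.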

GSK-J4 + Vorinostat = compound: CCOC(=O)CCNc1cc(N2CCc3ccccc3CC2)nc(-c2ccccn2)n1 [GSK-J4] + O=C(CCCCCCC(=O)Nc1ccccc1)NO [Vorinostat] (partner 1 µM)
Summary of the method: as §1

AZ3146 + Navitoclax = compound: CN1CCC(CC1)OC2=CC(=C(C=C2)NC3=NC=C4C(=N3)N(C(=O)N4C)C5CCCC5)OC [AZ3146] + CC1(C)CCC(c2ccc(Cl)cc2)=C(CN2CCN(c3ccc(C(=O)NS(=O)(=O)c4ccc(N[C@H](CCN5CCOCC5)CSc5ccccc5)c(S(=O)(=O)C(F)(F)F)c4)cc3)CC2)C1 [Navitoclax] (partner 0.5 µM)
Summary of the method: as §1

AZ3146 + Linsitinib = compound: CN1CCC(CC1)OC2=CC(=C(C=C2)NC3=NC=C4C(=N3)N(C(=O)N4C)C5CCCC5)OC [AZ3146] + C[C@]1(O)C[C@@H](c2nc(-c3ccc4ccc(-c5ccccc5)nc4c3)c3c(N)nccn32)C1 [Linsitinib] (partner 1 µM)
Summary of the method: as §1

NCI-H596
relative viability (GSK-J4 + OSI-027; first compound 0.5 µM): 0.72
relative viability (GSK-J4 + OSI-027; first compound 1.581 µM): 0.767
relative viability (GSK-J4 + OSI-027; first compound 5 µM): 0.857
relative viability (GSK-J4 + OSI-027; first compound 15.81 µM): 0.464
relative viability (GSK-J4 + OSI-027; first compound 50 µM): 0.597
relative viability (GSK-J4 + Vorinostat; first compound 0.5 µM): 0.743
relative viability (GSK-J4 + Vorinostat; first compound 1.581 µM): 0.475
relative viability (GSK-J4 + Vorinostat; first compound 5 µM): 0.654
relative viability (GSK-J4 + Vorinostat; first compound 15.81 µM): 0.503
relative viability (GSK-J4 + Vorinostat; first compound 50 µM): 0.365
relative viability (AZ3146 + Navitoclax; first compound 0.08 µM): 1.02
relative viability (AZ3146 + Navitoclax; first compound 0.253 µM): 0.884
relative viability (AZ3146 + Navitoclax; first compound 0.8 µM): 0.9
relative viability (AZ3146 + Navitoclax; first compound 2.53 µM): 0.95
relative viability (AZ3146 + Navitoclax; first compound 8 µM): 0.929
relative viability (AZ3146 + Linsitinib; first compound 0.08 µM): 1.1
relative viability (AZ3146 + Linsitinib; first compound 0.253 µM): 1.01
relative viability (AZ3146 + Linsitinib; first compound 0.8 µM): 1.01
relative viability (AZ3146 + Linsitinib; first compound 2.53 µM): 1.04
relative viability (AZ3146 + Linsitinib; first compound 8 µM): 1.1

NCI-H647
relative viability (GSK-J4 + OSI-027; first compound 0.5 µM): 0.674
relative viability (GSK-J4 + OSI-027; first compound 1.581 µM): 0.513
relative viability (GSK-J4 + OSI-027; first compound 5 µM): 0.391
relative viability (GSK-J4 + OSI-027; first compound 15.81 µM): 0.594
relative viability (GSK-J4 + OSI-027; first compound 50 µM): 0.774
relative viability (GSK-J4 + Vorinostat; first compound 0.5 µM): 0.59
relative viability (GSK-J4 + Vorinostat; first compound 1.581 µM): 0.719
relative viability (GSK-J4 + Vorinostat; first compound 5 µM): 0.553
relative viability (GSK-J4 + Vorinostat; first compound 15.81 µM): 0.646
relative viability (GSK-J4 + Vorinostat; first compound 50 µM): 0.43
relative viability (AZ3146 + Navitoclax; first compound 0.08 µM): 1.06
relative viability (AZ3146 + Navitoclax; first compound 0.253 µM): 1.07
relative viability (AZ3146 + Navitoclax; first compound 0.8 µM): 1.16
relative viability (AZ3146 + Navitoclax; first compound 2.53 µM): 1.1
relative viability (AZ3146 + Navitoclax; first compound 8 µM): 0.893
relative viability (AZ3146 + Linsitinib; first compound 0.08 µM): 1.14
relative viability (AZ3146 + Linsitinib; first compound 0.253 µM): 1.3
relative viability (AZ3146 + Linsitinib; first compound 0.8 µM): 1.1
relative viability (AZ3146 + Linsitinib; first compound 2.53 µM): 1.16
relative viability (AZ3146 + Linsitinib; first compound 8 µM): 0.434

NCI-H727
relative viability (GSK-J4 + OSI-027; first compound 0.5 µM): 0.745
relative viability (GSK-J4 + OSI-027; first compound 1.581 µM): 0.383
relative viability (GSK-J4 + OSI-027; first compound 5 µM): 0.842
relative viability (GSK-J4 + OSI-027; first compound 15.81 µM): 0.55
relative viability (GSK-J4 + OSI-027; first compound 50 µM): 0.322
relative viability (GSK-J4 + Vorinostat; first compound 0.5 µM): 1.13
relative viability (GSK-J4 + Vorinostat; first compound 1.581 µM): 0.991
relative viability (GSK-J4 + Vorinostat; first compound 5 µM): 1.45
relative viability (GSK-J4 + Vorinostat; first compound 15.81 µM): 1.03
relative viability (GSK-J4 + Vorinostat; first compound 50 µM): 0.758
relative viability (AZ3146 + Navitoclax; first compound 0.08 µM): 0.501
relative viability (AZ3146 + Navitoclax; first compound 0.253 µM): 0.476
relative viability (AZ3146 + Navitoclax; first compound 0.8 µM): 0.431
relative viability (AZ3146 + Navitoclax; first compound 2.53 µM): 0.436
relative viability (AZ3146 + Navitoclax; first compound 8 µM): 0.413
relative viability (AZ3146 + Linsitinib; first compound 0.08 µM): 0.319
relative viability (AZ3146 + Linsitinib; first compound 0.253 µM): 0.188
relative viability (AZ3146 + Linsitinib; first compound 0.8 µM): 0.35
relative viability (AZ3146 + Linsitinib; first compound 2.53 µM): 0.269
relative viability (AZ3146 + Linsitinib; first compound 8 µM): 0.26

NCI-H838
relative viability (GSK-J4 + OSI-027; first compound 0.5 µM): 0.452
relative viability (GSK-J4 + OSI-027; first compound 1.581 µM): 0.353
relative viability (GSK-J4 + OSI-027; first compound 15.81 µM): 0.362
relative viability (GSK-J4 + OSI-027; first compound 50 µM): 0.385
relative viability (GSK-J4 + Vorinostat; first compound 0.5 µM): 0.721
relative viability (GSK-J4 + Vorinostat; first compound 1.581 µM): 0.717
relative viability (GSK-J4 + Vorinostat; first compound 5 µM): 0.401
relative viability (GSK-J4 + Vorinostat; first compound 15.81 µM): 0.695
relative viability (GSK-J4 + Vorinostat; first compound 50 µM): 0.57
relative viability (AZ3146 + Navitoclax; first compound 0.08 µM): 1.12
relative viability (AZ3146 + Navitoclax; first compound 0.253 µM): 1.19
relative viability (AZ3146 + Navitoclax; first compound 0.8 µM): 1.17
relative viability (AZ3146 + Navitoclax; first compound 2.53 µM): 1.13
relative viability (AZ3146 + Navitoclax; first compound 8 µM): 0.93
relative viability (AZ3146 + Linsitinib; first compound 0.08 µM): 0.921
relative viability (AZ3146 + Linsitinib; first compound 0.253 µM): 1
relative viability (AZ3146 + Linsitinib; first compound 0.8 µM): 0.97
relative viability (AZ3146 + Linsitinib; first compound 2.53 µM): 0.971
relative viability (AZ3146 + Linsitinib; first compound 8 µM): 0.79

NCI-H1355
relative viability (GSK-J4 + OSI-027; first compound 0.5 µM): 0.438
relative viability (GSK-J4 + OSI-027; first compound 1.581 µM): 0.316
relative viability (GSK-J4 + OSI-027; first compound 5 µM): 0.35
relative viability (GSK-J4 + OSI-027; first compound 15.81 µM): 0.29
relative viability (GSK-J4 + OSI-027; first compound 50 µM): 0.278
relative viability (GSK-J4 + Vorinostat; first compound 0.5 µM): 0.654
relative viability (GSK-J4 + Vorinostat; first compound 1.581 µM): 0.588
relative viability (GSK-J4 + Vorinostat; first compound 5 µM): 0.51
relative viability (GSK-J4 + Vorinostat; first compound 15.81 µM): 0.478
relative viability (GSK-J4 + Vorinostat; first compound 50 µM): 0.469
relative viability (AZ3146 + Navitoclax; first compound 0.08 µM): 0.974
relative viability (AZ3146 + Navitoclax; first compound 0.253 µM): 0.872
relative viability (AZ3146 + Navitoclax; first compound 0.8 µM): 1.04
relative viability (AZ3146 + Navitoclax; first compound 2.53 µM): 0.922
relative viability (AZ3146 + Navitoclax; first compound 8 µM): 1.01
relative viability (AZ3146 + Linsitinib; first compound 0.08 µM): 0.774
relative viability (AZ3146 + Linsitinib; first compound 0.253 µM): 0.854
relative viability (AZ3146 + Linsitinib; first compound 0.8 µM): 0.825
relative viability (AZ3146 + Linsitinib; first compound 2.53 µM): 0.864
relative viability (AZ3146 + Linsitinib; first compound 8 µM): 0.885

NCI-H1395
relative viability (GSK-J4 + OSI-027; first compound 0.5 µM): 0.65
relative viability (GSK-J4 + OSI-027; first compound 1.581 µM): 0.641
relative viability (GSK-J4 + OSI-027; first compound 5 µM): 0.515
relative viability (GSK-J4 + OSI-027; first compound 15.81 µM): 0.591
relative viability (GSK-J4 + OSI-027; first compound 50 µM): 0.569
relative viability (GSK-J4 + Vorinostat; first compound 0.5 µM): 1.11
relative viability (GSK-J4 + Vorinostat; first compound 1.581 µM): 0.813
relative viability (GSK-J4 + Vorinostat; first compound 5 µM): 0.625
relative viability (GSK-J4 + Vorinostat; first compound 15.81 µM): 0.594
relative viability (GSK-J4 + Vorinostat; first compound 50 µM): 0.62
relative viability (AZ3146 + Navitoclax; first compound 0.08 µM): 1.21
relative viability (AZ3146 + Navitoclax; first compound 0.253 µM): 0.924
relative viability (AZ3146 + Navitoclax; first compound 0.8 µM): 0.985
relative viability (AZ3146 + Navitoclax; first compound 2.53 µM): 1.09
relative viability (AZ3146 + Navitoclax; first compound 8 µM): 1.18
relative viability (AZ3146 + Linsitinib; first compound 0.08 µM): 0.986
relative viability (AZ3146 + Linsitinib; first compound 0.253 µM): 1.1
relative viability (AZ3146 + Linsitinib; first compound 0.8 µM): 1.28
relative viability (AZ3146 + Linsitinib; first compound 2.53 µM): 1.37
relative viability (AZ3146 + Linsitinib; first compound 8 µM): 1.05

NCI-H1437
relative viability (GSK-J4 + OSI-027; first compound 0.5 µM): 0.899
relative viability (GSK-J4 + OSI-027; first compound 1.581 µM): 0.761
relative viability (GSK-J4 + OSI-027; first compound 5 µM): 0.806
relative viability (GSK-J4 + OSI-027; first compound 15.81 µM): 0.882
relative viability (GSK-J4 + OSI-027; first compound 50 µM): 0.648
relative viability (GSK-J4 + Vorinostat; first compound 0.5 µM): 0.827
relative viability (GSK-J4 + Vorinostat; first compound 1.581 µM): 0.608
relative viability (GSK-J4 + Vorinostat; first compound 5 µM): 0.715
relative viability (GSK-J4 + Vorinostat; first compound 15.81 µM): 0.706
relative viability (GSK-J4 + Vorinostat; first compound 50 µM): 0.305
relative viability (AZ3146 + Navitoclax; first compound 0.08 µM): 1.02
relative viability (AZ3146 + Navitoclax; first compound 0.253 µM): 1.09
relative viability (AZ3146 + Navitoclax; first compound 0.8 µM): 1.07
relative viability (AZ3146 + Navitoclax; first compound 2.53 µM): 1.13
relative viability (AZ3146 + Navitoclax; first compound 8 µM): 1.14
relative viability (AZ3146 + Linsitinib; first compound 0.08 µM): 0.967
relative viability (AZ3146 + Linsitinib; first compound 0.253 µM): 0.996
relative viability (AZ3146 + Linsitinib; first compound 0.8 µM): 1.01
relative viability (AZ3146 + Linsitinib; first compound 2.53 µM): 1.04
relative viability (AZ3146 + Linsitinib; first compound 8 µM): 1.03

NCI-H1651
relative viability (GSK-J4 + OSI-027; first compound 0.5 µM): 0.79
relative viability (GSK-J4 + OSI-027; first compound 1.581 µM): 0.734
relative viability (GSK-J4 + OSI-027; first compound 5 µM): 0.687
relative viability (GSK-J4 + OSI-027; first compound 15.81 µM): 0.706
relative viability (GSK-J4 + OSI-027; first compound 50 µM): 0.721
relative viability (GSK-J4 + Vorinostat; first compound 0.5 µM): 0.607
relative viability (GSK-J4 + Vorinostat; first compound 1.581 µM): 0.537
relative viability (GSK-J4 + Vorinostat; first compound 5 µM): 0.558
relative viability (GSK-J4 + Vorinostat; first compound 15.81 µM): 0.448
relative viability (GSK-J4 + Vorinostat; first compound 50 µM): 0.464
relative viability (AZ3146 + Navitoclax; first compound 0.08 µM): 1.03
relative viability (AZ3146 + Navitoclax; first compound 0.253 µM): 1.07
relative viability (AZ3146 + Navitoclax; first compound 0.8 µM): 1
relative viability (AZ3146 + Navitoclax; first compound 2.53 µM): 0.995
relative viability (AZ3146 + Navitoclax; first compound 8 µM): 1.1
relative viability (AZ3146 + Linsitinib; first compound 0.08 µM): 0.886
relative viability (AZ3146 + Linsitinib; first compound 0.253 µM): 1.07
relative viability (AZ3146 + Linsitinib; first compound 0.8 µM): 1.04
relative viability (AZ3146 + Linsitinib; first compound 2.53 µM): 0.989
relative viability (AZ3146 + Linsitinib; first compound 8 µM): 1
